Laboratory results as given in US6545006B1, “Process for obtaining L-dihydroorotic acid and use thereof” (Aventis Pharma Deutschland GmbH, priority 1997, dated 2003).

What was measured:
Format in all cases: physicochemical
[1] = Stability of L-DHO for 18 h at 14° C. in human serum; settings: for Residue (%) / concentration 1 5 μg/ml / Concentration 2 20 μg/ml: Human serum, 14° C.
Description: (§1) In order to simulate the conditions of the samples when they are waiting in the autosampler for the actual analysis the stability during 18 h at 14° C. was determined. For that reason the cell lysates were spiked and then treated with 30 μl 6 M KOH/100 μl lysate before the start of the analysis. Correspondingly, the serum samples were spiked and then deproteinized as described in 1.5.2. […] In serum samples the analyte is stable under these conditions. For these reasons only so many HPLC samples were prepared that the maximal length of stay in the autosampler was less than 18 h.

[2] = Stability of L-DHO in human serum at −20° C.; settings: for Residue (%) / concentration 1 5 μg/ml / Concentration 2 20 μg/ml: Human serum
Description: (§2) A standard stock solution was prepared by dissolving 1 mg L-DHO in 1 ml water. Aliquots of 400 μl were frozen at −20° C. Stability of these solutions was guaranteed for at least 4 weeks. Defined amounts of the stock solution were added to the cell lysates and to human or rat serum and assayed to evaluate the linearity between the increase of the signal and the spiked L-DHO concentration. The precision and the accuracy of the method were investigated by using quality control (QC) samples with an L-DHO content in the low, the middle and the high concentration range of the signal/concentration linearity curve.
(§3) In order to reduce the protein content […] serum were added to a Microcon filter (10 000 D, model 10, code 42407, Amicon) and centrifuged for 30 min at 13 000 rounds per minute (rpm). The flow through consisted of about 150 μl and contains the analyte L-DHO. From this liquid 20 μl were used for HPLC analysis.
(§4) L-DHO was stable under the above mentioned conditions in Jurkat cells over a period of at least 4 weeks. […] For these reasons it can be stated only that in rat and human serum samples L-DHO is definitely stable only for at least 1 week.

[3] = Stability of L-DHO in Jurkat cell lysates at −20° C.; settings: Jurkat cells
Description: as §2
Cells were suspended in a defined medium volume and cell density of samples was determined via vital microscopy using Eosin. About 10×10^6 cells were removed, pelleted by 5 minute-centrifugation at 350×g and the supernatant was discarded. Lysis of the cells was done by resuspending the cell pellet in 500 μl 1.2 M HClO4. This mixture was transferred in 2.0 ml Eppendorf safe-lock caps and the protein was precipitated by 2 minutes high speed centrifugation. The supernatant was completely removed, transferred in glass vials and after addition of 500 μl chloroform thoroughly mixed by 2 minutes vortexing. Cellular lipids were extracted by chloroform following 10 minutes centrifugation (1502 g) at 10° C. The purified supernatant was collected in 2 ml Eppendorf-caps and stored at −20° C. until further used. For the HPLC analysis 100 μl of this supernatant were neutralized with 30 μl 6 M KOH. After shaking for about 5 sec the samples were stored on ice for 30 min. Thereafter they were centrifuged for 5 min at 15 000 rpm. From the clear supernatant 20 μl were used for the HPLC analysis.
as §4

[4] = Stability of L-DHO in rat serum at −20° C.; settings: for Residue (%) / concentration 1 5 μg/ml / Concentration 2 20 μg/ml: Rat serum
Description: as §2, §3, §4

[5] = Stability of L-DHO for 18 h at 14° C. in Jurkat cell lysates; settings: for Residue (%) / concentration 1 20 μg/ml / Concentration 2 100 μg/ml: Jurkat cells, 14° C.
Description: as §1

[6] = Stability of L-DHO standard stock solution; settings: 1 mg L-DHO in 1 ml water, frozen at −20° C.
Description: as §2

[7] = Stability of L-DHO for 18 h at 14° C. in rat serum; settings: for concentration 1 5 μg/ml / Residue (%) / Concentration 2 20 μg/ml: Rat serum, 14° C.
Description: as §1

## O=C1C[C@@H](C(=O)O)NC(=O)N1 [L-DHO, L-dihydroorotic acid]
[1]; 5 μg/ml, 0 h
  Residue (%): 100%
  concentration 1 5 μg/ml: 3340 ng/mL
[1]; 5 μg/ml, 18 h
  Residue (%): 100.9%
  concentration 1 5 μg/ml: 3370 ng/mL
[1]; 20 μg/ml, 0 h
  Concentration 2 20 μg/ml: 18780 ng/mL
  Residue (%): 100%
[1]; 20 μg/ml, 18 h
  Concentration 2 20 μg/ml: 22090 ng/mL
  Residue (%): 117.6%
[1]; human serum, 18 h at 14° C.
  stability of the analyte in serum samples: stable
[2]; 5 μg/ml, Time 0 (h)
  Residue (%): 100%
  concentration 1 5 μg/ml: 4670 ng/mL
[2]; 5 μg/ml, Time 8 (h)
  Residue (%): 103.0%
  concentration 1 5 μg/ml: 4810 ng/mL
[2]; 5 μg/ml, Time 65 (h)
  Residue (%): 104.3%
  concentration 1 5 μg/ml: 4870 ng/mL
[2]; 20 μg/ml, Time 0 (h)
  Concentration 2 20 μg/ml: 20220 ng/mL
  Residue (%): 100%
[2]; 20 μg/ml, Time 8 (h)
  Concentration 2 20 μg/ml: 20380 ng/mL
  Residue (%): 100.8%
[2]; 20 μg/ml, Time 65 (h)
  Concentration 2 20 μg/ml: 23200 ng/mL
  Residue (%): 114.7%
[2]; human serum
  period over which L-DHO is definitely stable: at least 1 week
[3]; 20 μg/ml, 0 days
  Residue (%): 100%
  concentration 1 20 μg/ml: 19340 ng/mL
[3]; 20 μg/ml, 7 days
  Residue (%): 99.7%
  concentration 1 20 μg/ml: 19280 ng/mL
[3]; 20 μg/ml, 29 days
  Residue (%): 103.3%
  concentration 1 20 μg/ml: 19980 ng/mL
[3]; 100 μg/ml, 0 days
  Concentration 2 100 μg/ml: 100050 ng/mL
  Residue (%): 100%
[3]; 100 μg/ml, 7 days
  Concentration 2 100 μg/ml: 99090 ng/mL
  Residue (%): 99.0%
[3]; 100 μg/ml, 14 days
  Concentration 2 100 μg/ml: 115320 ng/mL
  Residue (%): 115.3%
[3]; 100 μg/ml, 29 days
  Concentration 2 100 μg/ml: 99350 ng/mL
  Residue (%): 99.3%
[3]; 2-3 freezing/thawing cycles
  period over which L-DHO was stable: at least 4 weeks
[4]; 5 μg/ml, Time 0 (h)
  Residue (%): 100%
  concentration 1 5 μg/ml: 4300 ng/mL
[4]; 5 μg/ml, Time 7 (h)
  Residue (%): 105.1%
  concentration 1 5 μg/ml: 4520 ng/mL
[4]; 5 μg/ml, Time 14 (h)
  Residue (%): 111.9%
  concentration 1 5 μg/ml: 4810 ng/mL
[4]; 5 μg/ml, Time 21 (h)
  Residue (%): 129.1%
  concentration 1 5 μg/ml: 5550 ng/mL
[4]; 20 μg/ml, Time 0 (h)
  Concentration 2 20 μg/ml: 19940 ng/mL
  Residue (%): 100%
[4]; 20 μg/ml, Time 7 (h)
  Concentration 2 20 μg/ml: 19620 ng/mL
  Residue (%): 98.4%
[4]; 20 μg/ml, Time 14 (h)
  Concentration 2 20 μg/ml: 20930 ng/mL
  Residue (%): 105.0%
[4]; 20 μg/ml, Time 21 (h)
  Concentration 2 20 μg/ml: 22330 ng/mL
  Residue (%): 112.2%
[4]; rat serum
  period over which L-DHO is definitely stable: at least 1 week
[5]; 20 μg/ml, 0 h
  Residue (%): 100%
  concentration 1 20 μg/ml: 19960 ng/mL
[5]; 20 μg/ml, 18 h
  Residue (%): 93.2%
  concentration 1 20 μg/ml: 18600 ng/mL
[5]; 100 μg/ml, 0 h
  Concentration 2 100 μg/ml: 100020 ng/mL
  Residue (%): 100%
[5]; 100 μg/ml, 18 h
  Concentration 2 100 μg/ml: 97430 ng/mL
  Residue (%): 97.4%
[5]; cells, 18 h at 14° C.
  reduction of L-DHO content: ≤ 7%
[6]
  Stability of standard stock solution: at least 4 weeks
[7]; 5 μg/ml, 0 h
  concentration 1 5 μg/ml: 4610 ng/mL
[7]; 5 μg/ml, 18 h
  Residue (%): 107.6%
  concentration 1 5 μg/ml: 4960 ng/mL
[7]; 20 μg/ml, 0 h
  Concentration 2 20 μg/ml: 19990 ng/mL
  Residue (%): 100%
[7]; 20 μg/ml, 18 h
  Concentration 2 20 μg/ml: 20530 ng/mL
  Residue (%): 102.7%
[7]; rat serum, 18 h at 14° C.
  stability of the analyte in serum samples: stable
